Assay results reported in PubChem BioAssay (NCI).
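How tested: cells in 96-well plates exposed to compound for 48 hours at five concentrations. TGI marks complete inhibition of growth.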 Where a SMILES comes first, the peptide text is derived from it. Bridges are numbered along the chain shown (N, C = ends). [ ]: non-standard residue; d: D form. The star is where a group is joined. Cbz = O=C(OCc1ccccc1)*; Aib = CC(C)(N)C(=O)O; OBn = c1ccc(CO*)cc1; βAla = NCCC(=O)O

What follows are compounds tested on HS 578T breast (assay: DTP human tumour cell line panel, 48 h).

SMILES | TGI [µM]
CCCN=C(NC(=O)c1ccc(Cl)cc1)SC | 95
COc1ccc(-c2c(C#N)c(NC(=S)NC(=O)c3ccccc3)nc3c2CCCC3)cc1OC | > 100
Cc1c(Cc2ccccc2)n(COCCCO)c(=O)[nH]c1=O | > 100
CC1(C)NC(=O)C(NC(=O)C(CC(=O)OCc2ccccc2)NC(=O)OCc2ccccc2)CCCCNC(=O)CCNC1=O (stereo not drawn) (Cbz-D(OBn)K[Aib][βAla]; lactam 2-C; configuration not given here) | > 100
c1ccc2c(c1)nc1n2CNCC1 | > 100

The compounds below were run on EKVX NSCLC (assay: DTP human tumour cell line panel, 48 h).

SMILES | TGI [µM]
CC(=O)OC[C@H]1[C@@H]2C(CC[C@]13CO3)OC(=O)CC(C)[C@]2(C)CCc1ccoc1 (stereo partly drawn) | > 100
CCOC(=O)C(=C(SC)SC)c1nn2c(=O)cc(C)nc2s1 | 53.8
CCCN=C(NC(=O)c1ccc(Cl)cc1)SC | > 100
COc1ccc(-c2c(C#N)c(NC(=S)NC(=O)c3ccccc3)nc3c2CCCC3)cc1OC | 70.4
Cc1c(Cc2ccccc2)n(COCCCO)c(=O)[nH]c1=O | > 100
CC1(C)NC(=O)C(NC(=O)C(CC(=O)OCc2ccccc2)NC(=O)OCc2ccccc2)CCCCNC(=O)CCNC1=O (stereo not drawn) (Cbz-D(OBn)K[Aib][βAla]; lactam 2-C; configuration not given here) | > 100
c1ccc2c(c1)nc1n2CNCC1 | > 100

Each compound was assayed on OVCAR-8 ovarian (assay: DTP human tumour cell line panel, 48 h).

SMILES | TGI [µM]
CC(=O)OC[C@H]1[C@@H]2C(CC[C@]13CO3)OC(=O)CC(C)[C@]2(C)CCc1ccoc1 (stereo partly drawn) | > 100
CCOC(=O)C(=C(SC)SC)c1nn2c(=O)cc(C)nc2s1 | 43.9
CCCN=C(NC(=O)c1ccc(Cl)cc1)SC | > 100
COc1ccc(-c2c(C#N)c(NC(=S)NC(=O)c3ccccc3)nc3c2CCCC3)cc1OC | > 100
Cc1c(Cc2ccccc2)n(COCCCO)c(=O)[nH]c1=O | > 100
CC1(C)NC(=O)C(NC(=O)C(CC(=O)OCc2ccccc2)NC(=O)OCc2ccccc2)CCCCNC(=O)CCNC1=O (stereo not drawn) (Cbz-D(OBn)K[Aib][βAla]; lactam 2-C; configuration not given here) | > 100
c1ccc2c(c1)nc1n2CNCC1 | > 100

These compounds were tested on SK-MEL-2 melanoma (assay: DTP human tumour cell line panel, 48 h).

SMILES | TGI [µM]
CCOC(=O)C(=C(SC)SC)c1nn2c(=O)cc(C)nc2s1 | 37.5
CCCN=C(NC(=O)c1ccc(Cl)cc1)SC | > 100
Cc1c(Cc2ccccc2)n(COCCCO)c(=O)[nH]c1=O | > 100
c1ccc2c(c1)nc1n2CNCC1 | > 100

What follows are compounds tested on HT29 colon (assay: DTP human tumour cell line panel, 48 h).

SMILES | TGI [µM]
CC(=O)OC[C@H]1[C@@H]2C(CC[C@]13CO3)OC(=O)CC(C)[C@]2(C)CCc1ccoc1 (stereo partly drawn) | > 100
CCOC(=O)C(=C(SC)SC)c1nn2c(=O)cc(C)nc2s1 | 35.8
CCCN=C(NC(=O)c1ccc(Cl)cc1)SC | > 100
COc1ccc(-c2c(C#N)c(NC(=S)NC(=O)c3ccccc3)nc3c2CCCC3)cc1OC | > 100
Cc1c(Cc2ccccc2)n(COCCCO)c(=O)[nH]c1=O | > 100
CC1(C)NC(=O)C(NC(=O)C(CC(=O)OCc2ccccc2)NC(=O)OCc2ccccc2)CCCCNC(=O)CCNC1=O (stereo not drawn) (Cbz-D(OBn)K[Aib][βAla]; lactam 2-C; configuration not given here) | > 100
c1ccc2c(c1)nc1n2CNCC1 | > 100

The compounds below were run on SF-539 CNS (assay: DTP human tumour cell line panel, 48 h).

SMILES | TGI [µM]
CC(=O)OC[C@H]1[C@@H]2C(CC[C@]13CO3)OC(=O)CC(C)[C@]2(C)CCc1ccoc1 (stereo partly drawn) | > 100
CCOC(=O)C(=C(SC)SC)c1nn2c(=O)cc(C)nc2s1 | 32.7
CCCN=C(NC(=O)c1ccc(Cl)cc1)SC | > 100
COc1ccc(-c2c(C#N)c(NC(=S)NC(=O)c3ccccc3)nc3c2CCCC3)cc1OC | > 100
Cc1c(Cc2ccccc2)n(COCCCO)c(=O)[nH]c1=O | > 100
CC1(C)NC(=O)C(NC(=O)C(CC(=O)OCc2ccccc2)NC(=O)OCc2ccccc2)CCCCNC(=O)CCNC1=O (stereo not drawn) (Cbz-D(OBn)K[Aib][βAla]; lactam 2-C; configuration not given here) | > 100
c1ccc2c(c1)nc1n2CNCC1 | > 100

What follows are compounds tested on TK-10 renal (assay: DTP human tumour cell line panel, 48 h).

SMILES | TGI [µM]
CC(=O)OC[C@H]1[C@@H]2C(CC[C@]13CO3)OC(=O)CC(C)[C@]2(C)CCc1ccoc1 (stereo partly drawn) | > 100
CCOC(=O)C(=C(SC)SC)c1nn2c(=O)cc(C)nc2s1 | 44.9
COc1ccc(-c2c(C#N)c(NC(=S)NC(=O)c3ccccc3)nc3c2CCCC3)cc1OC | > 100
Cc1c(Cc2ccccc2)n(COCCCO)c(=O)[nH]c1=O | > 100
CC1(C)NC(=O)C(NC(=O)C(CC(=O)OCc2ccccc2)NC(=O)OCc2ccccc2)CCCCNC(=O)CCNC1=O (stereo not drawn) (Cbz-D(OBn)K[Aib][βAla]; lactam 2-C; configuration not given here) | > 100
c1ccc2c(c1)nc1n2CNCC1 | > 100

These compounds were tested on MDA-N (assay: DTP human tumour cell line panel, 48 h).

SMILES | TGI [µM]
CC(=O)OC[C@H]1[C@@H]2C(CC[C@]13CO3)OC(=O)CC(C)[C@]2(C)CCc1ccoc1 (stereo partly drawn) | > 100
CCOC(=O)C(=C(SC)SC)c1nn2c(=O)cc(C)nc2s1 | 30.6
CCCN=C(NC(=O)c1ccc(Cl)cc1)SC | > 100
COc1ccc(-c2c(C#N)c(NC(=S)NC(=O)c3ccccc3)nc3c2CCCC3)cc1OC | > 100
Cc1c(Cc2ccccc2)n(COCCCO)c(=O)[nH]c1=O | > 100
CC1(C)NC(=O)C(NC(=O)C(CC(=O)OCc2ccccc2)NC(=O)OCc2ccccc2)CCCCNC(=O)CCNC1=O (stereo not drawn) (Cbz-D(OBn)K[Aib][βAla]; lactam 2-C; configuration not given here) | > 100
c1ccc2c(c1)nc1n2CNCC1 | > 100

These compounds were tested on MDA-MB-435 (assay: DTP human tumour cell line panel, 48 h).

SMILES | TGI [µM]
CC(=O)OC[C@H]1[C@@H]2C(CC[C@]13CO3)OC(=O)CC(C)[C@]2(C)CCc1ccoc1 (stereo partly drawn) | > 100
CCOC(=O)C(=C(SC)SC)c1nn2c(=O)cc(C)nc2s1 | 30.7
CCCN=C(NC(=O)c1ccc(Cl)cc1)SC | > 100
COc1ccc(-c2c(C#N)c(NC(=S)NC(=O)c3ccccc3)nc3c2CCCC3)cc1OC | > 100
Cc1c(Cc2ccccc2)n(COCCCO)c(=O)[nH]c1=O | > 100
CC1(C)NC(=O)C(NC(=O)C(CC(=O)OCc2ccccc2)NC(=O)OCc2ccccc2)CCCCNC(=O)CCNC1=O (stereo not drawn) (Cbz-D(OBn)K[Aib][βAla]; lactam 2-C; configuration not given here) | > 100
c1ccc2c(c1)nc1n2CNCC1 | > 100

These compounds were tested on LOX IMVI melanoma (assay: DTP human tumour cell line panel, 48 h).

SMILES | TGI [µM]
CC(=O)OC[C@H]1[C@@H]2C(CC[C@]13CO3)OC(=O)CC(C)[C@]2(C)CCc1ccoc1 (stereo partly drawn) | > 100
CCOC(=O)C(=C(SC)SC)c1nn2c(=O)cc(C)nc2s1 | 29.5
CCCN=C(NC(=O)c1ccc(Cl)cc1)SC | > 100
COc1ccc(-c2c(C#N)c(NC(=S)NC(=O)c3ccccc3)nc3c2CCCC3)cc1OC | > 100
Cc1c(Cc2ccccc2)n(COCCCO)c(=O)[nH]c1=O | > 100
CC1(C)NC(=O)C(NC(=O)C(CC(=O)OCc2ccccc2)NC(=O)OCc2ccccc2)CCCCNC(=O)CCNC1=O (stereo not drawn) (Cbz-D(OBn)K[Aib][βAla]; lactam 2-C; configuration not given here) | > 100
c1ccc2c(c1)nc1n2CNCC1 | 73.3

These compounds were tested on SN12C renal (assay: DTP human tumour cell line panel, 48 h).

SMILES | TGI [µM]
CC(=O)OC[C@H]1[C@@H]2C(CC[C@]13CO3)OC(=O)CC(C)[C@]2(C)CCc1ccoc1 (stereo partly drawn) | > 100
CCOC(=O)C(=C(SC)SC)c1nn2c(=O)cc(C)nc2s1 | > 100
CCCN=C(NC(=O)c1ccc(Cl)cc1)SC | > 100
COc1ccc(-c2c(C#N)c(NC(=S)NC(=O)c3ccccc3)nc3c2CCCC3)cc1OC | > 100
Cc1c(Cc2ccccc2)n(COCCCO)c(=O)[nH]c1=O | > 100
CC1(C)NC(=O)C(NC(=O)C(CC(=O)OCc2ccccc2)NC(=O)OCc2ccccc2)CCCCNC(=O)CCNC1=O (stereo not drawn) (Cbz-D(OBn)K[Aib][βAla]; lactam 2-C; configuration not given here) | > 100
c1ccc2c(c1)nc1n2CNCC1 | > 100

The compounds below were run on NCI-H23 lung (assay: DTP human tumour cell line panel, 48 h).

SMILES | TGI [µM]
CC(=O)OC[C@H]1[C@@H]2C(CC[C@]13CO3)OC(=O)CC(C)[C@]2(C)CCc1ccoc1 (stereo partly drawn) | > 100
CCOC(=O)C(=C(SC)SC)c1nn2c(=O)cc(C)nc2s1 | 65.9
CCCN=C(NC(=O)c1ccc(Cl)cc1)SC | > 100
COc1ccc(-c2c(C#N)c(NC(=S)NC(=O)c3ccccc3)nc3c2CCCC3)cc1OC | > 100
Cc1c(Cc2ccccc2)n(COCCCO)c(=O)[nH]c1=O | > 100
CC1(C)NC(=O)C(NC(=O)C(CC(=O)OCc2ccccc2)NC(=O)OCc2ccccc2)CCCCNC(=O)CCNC1=O (stereo not drawn) (Cbz-D(OBn)K[Aib][βAla]; lactam 2-C; configuration not given here) | > 100
c1ccc2c(c1)nc1n2CNCC1 | > 100

These compounds were tested on HOP-62 NSCLC (assay: DTP human tumour cell line panel, 48 h).

SMILES | TGI [µM]
CC(=O)OC[C@H]1[C@@H]2C(CC[C@]13CO3)OC(=O)CC(C)[C@]2(C)CCc1ccoc1 (stereo partly drawn) | > 100
CCOC(=O)C(=C(SC)SC)c1nn2c(=O)cc(C)nc2s1 | > 100
CCCN=C(NC(=O)c1ccc(Cl)cc1)SC | > 100
COc1ccc(-c2c(C#N)c(NC(=S)NC(=O)c3ccccc3)nc3c2CCCC3)cc1OC | > 100
Cc1c(Cc2ccccc2)n(COCCCO)c(=O)[nH]c1=O | > 100
CC1(C)NC(=O)C(NC(=O)C(CC(=O)OCc2ccccc2)NC(=O)OCc2ccccc2)CCCCNC(=O)CCNC1=O (stereo not drawn) (Cbz-D(OBn)K[Aib][βAla]; lactam 2-C; configuration not given here) | > 100
c1ccc2c(c1)nc1n2CNCC1 | > 100

The compounds below were run on SF-268 CNS (assay: DTP human tumour cell line panel, 48 h).

SMILES | TGI [µM]
CC(=O)OC[C@H]1[C@@H]2C(CC[C@]13CO3)OC(=O)CC(C)[C@]2(C)CCc1ccoc1 (stereo partly drawn) | > 100
CCOC(=O)C(=C(SC)SC)c1nn2c(=O)cc(C)nc2s1 | 54.5
CCCN=C(NC(=O)c1ccc(Cl)cc1)SC | > 100
COc1ccc(-c2c(C#N)c(NC(=S)NC(=O)c3ccccc3)nc3c2CCCC3)cc1OC | > 100
Cc1c(Cc2ccccc2)n(COCCCO)c(=O)[nH]c1=O | > 100
CC1(C)NC(=O)C(NC(=O)C(CC(=O)OCc2ccccc2)NC(=O)OCc2ccccc2)CCCCNC(=O)CCNC1=O (stereo not drawn) (Cbz-D(OBn)K[Aib][βAla]; lactam 2-C; configuration not given here) | > 100
c1ccc2c(c1)nc1n2CNCC1 | > 100

These compounds were tested on HCC-2998 colon (assay: DTP human tumour cell line panel, 48 h).

SMILES | TGI [µM]
CC(=O)OC[C@H]1[C@@H]2C(CC[C@]13CO3)OC(=O)CC(C)[C@]2(C)CCc1ccoc1 (stereo partly drawn) | > 100
CCOC(=O)C(=C(SC)SC)c1nn2c(=O)cc(C)nc2s1 | 34.9
CCCN=C(NC(=O)c1ccc(Cl)cc1)SC | > 100
Cc1c(Cc2ccccc2)n(COCCCO)c(=O)[nH]c1=O | > 100
CC1(C)NC(=O)C(NC(=O)C(CC(=O)OCc2ccccc2)NC(=O)OCc2ccccc2)CCCCNC(=O)CCNC1=O (stereo not drawn) (Cbz-D(OBn)K[Aib][βAla]; lactam 2-C; configuration not given here) | > 100
c1ccc2c(c1)nc1n2CNCC1 | > 100
